In ChEMBL document CHEMBL3272185, “Synthesis and enzymic activity of some novel xanthine oxidase inhibitors. 3-Substituted 5,7-dihydroxypyrazolo(1,5-alpha)pyrimidines” (J Med Chem, 1976):

Target: T1, Xanthine dehydrogenase/oxidase (Bos taurus, UniProt P80457)
Experiment: Activity at bovine milk xanthine oxidase assessed as reduction of cytochrome c and phenazine methosulfate
Details: cattle; call rule not given here

T1 sequence (P80457 whole entry): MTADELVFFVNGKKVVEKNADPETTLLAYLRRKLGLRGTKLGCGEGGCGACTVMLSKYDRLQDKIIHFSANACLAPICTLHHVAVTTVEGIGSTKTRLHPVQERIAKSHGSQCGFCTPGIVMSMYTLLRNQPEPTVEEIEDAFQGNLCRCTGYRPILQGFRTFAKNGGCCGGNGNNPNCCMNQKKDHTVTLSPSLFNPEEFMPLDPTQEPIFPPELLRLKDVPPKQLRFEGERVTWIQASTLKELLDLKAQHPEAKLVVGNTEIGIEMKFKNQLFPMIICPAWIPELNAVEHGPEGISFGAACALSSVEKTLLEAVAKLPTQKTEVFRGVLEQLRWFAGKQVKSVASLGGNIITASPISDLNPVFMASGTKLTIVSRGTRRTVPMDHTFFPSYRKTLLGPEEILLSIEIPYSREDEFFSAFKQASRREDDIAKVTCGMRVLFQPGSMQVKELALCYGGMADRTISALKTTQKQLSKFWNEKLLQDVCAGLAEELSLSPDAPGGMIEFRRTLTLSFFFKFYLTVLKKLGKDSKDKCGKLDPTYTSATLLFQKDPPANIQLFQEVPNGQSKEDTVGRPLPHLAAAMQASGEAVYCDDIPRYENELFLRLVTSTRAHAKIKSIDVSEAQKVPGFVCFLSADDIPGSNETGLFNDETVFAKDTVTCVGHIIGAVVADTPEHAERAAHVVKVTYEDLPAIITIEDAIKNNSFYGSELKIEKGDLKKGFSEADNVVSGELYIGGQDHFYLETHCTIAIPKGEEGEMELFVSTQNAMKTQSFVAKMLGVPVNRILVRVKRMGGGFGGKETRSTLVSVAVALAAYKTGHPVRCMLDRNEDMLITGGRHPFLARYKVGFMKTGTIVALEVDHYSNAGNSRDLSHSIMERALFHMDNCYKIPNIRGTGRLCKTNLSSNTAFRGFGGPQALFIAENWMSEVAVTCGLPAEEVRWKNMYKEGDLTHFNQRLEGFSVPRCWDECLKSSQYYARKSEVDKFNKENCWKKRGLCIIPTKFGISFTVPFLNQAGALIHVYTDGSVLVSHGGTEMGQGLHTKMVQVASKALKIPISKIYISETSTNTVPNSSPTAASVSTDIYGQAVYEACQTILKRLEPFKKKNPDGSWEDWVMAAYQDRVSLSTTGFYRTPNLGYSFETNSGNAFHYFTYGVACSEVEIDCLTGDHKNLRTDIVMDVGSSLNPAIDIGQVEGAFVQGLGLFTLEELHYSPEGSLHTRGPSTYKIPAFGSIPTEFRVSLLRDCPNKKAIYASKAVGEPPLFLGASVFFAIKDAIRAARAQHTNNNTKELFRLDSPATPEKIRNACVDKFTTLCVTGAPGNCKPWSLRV

SMILES | Activity
Cc1ccc(-c2cnn3c(O)cc(O)nc23)cc1 | Not Active
Oc1cc(O)n2ncc(Cl)c2n1 | Not Active
Oc1cc(O)n2nccc2n1 | Not Active
O=[N+]([O-])c1cnn2c(O)cc(O)nc12 | Not Active
Oc1cc(O)n2ncc(-c3cccnc3)c2n1 | Not Active
O=c1[nH]c(=O)c2[nH]cnc2[nH]1 [XANTHINE] | Active
Oc1ncnc2[nH]ncc12 [ALLOPURINOL] | Active
Oc1cc(O)n2ncc(Br)c2n1 | Not Active
Oc1cc(O)n2ncc(-c3ccc(Cl)cc3)c2n1 | Not Active
CC(=O)Nc1ccc(-c2cnn3c(O)cc(O)nc23)cc1 | Not Active

Now from value to molecule:

Activity | SMILES
Not Active | Oc1cc(O)n2ncc(-c3cccc4ccccc34)c2n1
Not Active | Oc1cc(O)n2ncc(-c3ccccc3)c2n1
Not Active | Cc1cccc(-c2cnn3c(O)cc(O)nc23)c1
Not Active | Oc1cc(O)n2ncc(-c3ccc4c(c3)OCO4)c2n1
Not Active | Oc1cc(O)n2ncc(-c3ccc(Br)cc3)c2n1

Target: T1, Xanthine dehydrogenase/oxidase
Experiment: Inhibition of bovine milk xanthine oxidase using xanthine as substrate
Details: read-out: I50

SMILES | IC50
Cc1ccc(-c2cnn3c(O)cc(O)nc23)cc1 | 0.096 µM
Oc1cc(O)n2ncc(Cl)c2n1 | 1.4 µM
Oc1cc(O)n2nccc2n1 | 5 µM
O=[N+]([O-])c1cnn2c(O)cc(O)nc12 | 15 µM
Oc1cc(O)n2ncc(-c3cccnc3)c2n1 | 0.043 µM
Oc1cc(O)n2ncc(Br)c2n1 | 1.2 µM
Oc1cc(O)n2ncc(-c3ccc(Cl)cc3)c2n1 | 0.043 µM
CC(=O)Nc1ccc(-c2cnn3c(O)cc(O)nc23)cc1 | 0.089 µM

The remaining lines, values ahead:

IC50 | SMILES
0.025 µM | Oc1cc(O)n2ncc(-c3cccc4ccccc34)c2n1
0.038 µM | Oc1cc(O)n2ncc(-c3ccccc3)c2n1
0.025 µM | Cc1cccc(-c2cnn3c(O)cc(O)nc23)c1
0.029 µM | Oc1cc(O)n2ncc(-c3ccc4c(c3)OCO4)c2n1
0.033 µM | Oc1cc(O)n2ncc(-c3ccc(Br)cc3)c2n1

Target: T1, Xanthine dehydrogenase/oxidase
Experiment: Inhibition of bovine milk xanthine oxidase using xanthine as substrate assessed as increase of I50 at pH 8.2 to 8.8
Details: cattle

inhibition (INH) | SMILES
Active | Oc1cc(O)n2ncc(-c3ccccc3)c2n1
Active | Oc1cc(O)n2ncc(-c3ccc(Br)cc3)c2n1

Target: T1, Xanthine dehydrogenase/oxidase
Experiment: Inhibition of bovine milk xanthine oxidase using xanthine as substrate assessed as increase of I50 at pH 6.6 to 7.6
Details: cattle

inhibition (INH) | SMILES
Active | Oc1cc(O)n2nccc2n1

Test system: not listed separately
Experiment: Dissociation constant, pKa of the compound
Details: not given

SMILES | pKa
O=c1[nH]cnc2nc[nH]c12 [HYPOXANTHINE] | 8.7
Oc1cc(O)n2nccc2n1 | 3.7
O=c1[nH]c(=O)c2[nH]cnc2[nH]1 [XANTHINE] | 7.6
Oc1ncnc2[nH]ncc12 [ALLOPURINOL] | 9

Now from value to molecule:

pKa | SMILES
3.8 | Oc1cc(O)n2ncc(-c3ccccc3)c2n1
3.8 | Oc1cc(O)n2ncc(-c3ccc(Br)cc3)c2n1

Target: T1, Xanthine dehydrogenase/oxidase
Experiment: Mixed-type inhibition of bovine milk xanthine oxidase using xanthine as substrate by Lineweaver-Burk plot analysis
Details: not given

SMILES | Ki
Cc1ccc(-c2cnn3c(O)cc(O)nc23)cc1 | 0.017 µM
O=[N+]([O-])c1cnn2c(O)cc(O)nc12 | 37 µM
Oc1cc(O)n2ncc(-c3ccc(Cl)cc3)c2n1 | 0.023 µM
CC(=O)Nc1ccc(-c2cnn3c(O)cc(O)nc23)cc1 | 0.085 µM

Now from value to molecule:

Ki | SMILES
0.02 µM | Cc1cccc(-c2cnn3c(O)cc(O)nc23)c1
0.023 µM | Oc1cc(O)n2ncc(-c3ccc4c(c3)OCO4)c2n1
0.026 µM | Oc1cc(O)n2ncc(-c3ccc(Br)cc3)c2n1

Target: T1, Xanthine dehydrogenase/oxidase
Experiment: Inhibition of bovine milk xanthine oxidase using xanthine as substrate assessed as increase of I50 at pH 7.6 to 7.9
Details: cattle

inhibition (INH) | SMILES
Active | Oc1cc(O)n2nccc2n1

Target: T1, Xanthine dehydrogenase/oxidase
Experiment: Inhibition of bovine milk xanthine oxidase using xanthine as substrate at 10 times I50 preincubated for 20 mins at 25 degC measured after 10 fold dilution relative to control
Details: cattle

SMILES | inhibition (INH)
Cc1ccc(-c2cnn3c(O)cc(O)nc23)cc1 | 52%
Oc1cc(O)n2ncc(Cl)c2n1 | 44%
Oc1cc(O)n2nccc2n1 | 49%
O=[N+]([O-])c1cnn2c(O)cc(O)nc12 | 53%
Oc1cc(O)n2ncc(-c3cccnc3)c2n1 | 53%
Oc1ncnc2[nH]ncc12 [ALLOPURINOL] | 100%
Oc1cc(O)n2ncc(Br)c2n1 | 52%
Oc1cc(O)n2ncc(-c3ccc(Cl)cc3)c2n1 | 50%
CC(=O)Nc1ccc(-c2cnn3c(O)cc(O)nc23)cc1 | 48%

The next lines start with the values.

inhibition (INH) | SMILES
45% | Oc1cc(O)n2ncc(-c3cccc4ccccc34)c2n1
49% | Oc1cc(O)n2ncc(-c3ccccc3)c2n1
48% | Cc1cccc(-c2cnn3c(O)cc(O)nc23)c1
46% | Oc1cc(O)n2ncc(-c3ccc4c(c3)OCO4)c2n1
53% | Oc1cc(O)n2ncc(-c3ccc(Br)cc3)c2n1

Target: T1, Xanthine dehydrogenase/oxidase
Experiment: Mixed-type inhibition of bovine milk xanthine oxidase using hypoxanthine as substrate by Lineweaver-Burk plot analysis
Details: not given

SMILES | Ki
Cc1ccc(-c2cnn3c(O)cc(O)nc23)cc1 | 0.024 µM
O=[N+]([O-])c1cnn2c(O)cc(O)nc12 | 31 µM
Oc1cc(O)n2ncc(-c3ccc(Cl)cc3)c2n1 | 0.019 µM
CC(=O)Nc1ccc(-c2cnn3c(O)cc(O)nc23)cc1 | 0.077 µM

Now from value to molecule:

Ki | SMILES
0.019 µM | Cc1cccc(-c2cnn3c(O)cc(O)nc23)c1
0.018 µM | Oc1cc(O)n2ncc(-c3ccc4c(c3)OCO4)c2n1
0.023 µM | Oc1cc(O)n2ncc(-c3ccc(Br)cc3)c2n1

Target: T1, Xanthine dehydrogenase/oxidase
Experiment: Inhibition of bovine milk xanthine oxidase using xanthine as substrate assessed as increase of I50 at pH 6.6 to 7.5
Details: cattle

SMILES | inhibition (INH)
Oc1ncnc2[nH]ncc12 [ALLOPURINOL] | Active

Target: T1, Xanthine dehydrogenase/oxidase
Experiment: Non-competitive inhibition of bovine milk xanthine oxidase using hypoxanthine as substrate by Lineweaver-Burk plot analysis
Details: not given

SMILES | Ki
Oc1cc(O)n2ncc(Cl)c2n1 | 1.8 µM
Oc1cc(O)n2nccc2n1 | 4.2 µM
Oc1cc(O)n2ncc(-c3cccnc3)c2n1 | 0.031 µM
Oc1cc(O)n2ncc(Br)c2n1 | 1.2 µM

Next, values leading:

Ki | SMILES
0.016 µM | Oc1cc(O)n2ncc(-c3cccc4ccccc34)c2n1
0.06 µM | Oc1cc(O)n2ncc(-c3ccccc3)c2n1

Target: T1, Xanthine dehydrogenase/oxidase
Experiment: Inhibition of bovine milk xanthine oxidase using xanthine as substrate at 10 times I50 preincubated for 1 hr at 4 degC measured after 10 fold dilution relative to control
Details: cattle

SMILES | inhibition (INH)
Cc1ccc(-c2cnn3c(O)cc(O)nc23)cc1 | 55%
Oc1cc(O)n2ncc(Cl)c2n1 | 45%
Oc1cc(O)n2nccc2n1 | 47%
O=[N+]([O-])c1cnn2c(O)cc(O)nc12 | 51%
Oc1cc(O)n2ncc(-c3cccnc3)c2n1 | 50%
Oc1ncnc2[nH]ncc12 [ALLOPURINOL] | 100%
Oc1cc(O)n2ncc(Br)c2n1 | 50%
Oc1cc(O)n2ncc(-c3ccc(Cl)cc3)c2n1 | 53%
CC(=O)Nc1ccc(-c2cnn3c(O)cc(O)nc23)cc1 | 47%

The next lines start with the values.

inhibition (INH) | SMILES
46% | Oc1cc(O)n2ncc(-c3cccc4ccccc34)c2n1
47% | Oc1cc(O)n2ncc(-c3ccccc3)c2n1
50% | Cc1cccc(-c2cnn3c(O)cc(O)nc23)c1
49% | Oc1cc(O)n2ncc(-c3ccc4c(c3)OCO4)c2n1
52% | Oc1cc(O)n2ncc(-c3ccc(Br)cc3)c2n1

Target: T1, Xanthine dehydrogenase/oxidase
Experiment: Non-competitive inhibition of bovine milk xanthine oxidase using xanthine as substrate by Lineweaver-Burk plot analysis
Details: not given

SMILES | Ki
Oc1cc(O)n2ncc(Cl)c2n1 | 2 µM
Oc1cc(O)n2nccc2n1 | 5.4 µM
Oc1cc(O)n2ncc(-c3cccnc3)c2n1 | 0.026 µM
Oc1cc(O)n2ncc(Br)c2n1 | 1.5 µM

Next, values leading:

Ki | SMILES
0.013 µM | Oc1cc(O)n2ncc(-c3cccc4ccccc34)c2n1
0.053 µM | Oc1cc(O)n2ncc(-c3ccccc3)c2n1

Target: T1, Xanthine dehydrogenase/oxidase
Experiment: Inhibition of bovine milk xanthine oxidase using xanthine as substrate assessed as increase of I50 at pH 6.6 to 8.2
Details: cattle

inhibition (INH) | SMILES
Active | Oc1cc(O)n2ncc(-c3ccccc3)c2n1
Active | Oc1cc(O)n2ncc(-c3ccc(Br)cc3)c2n1

Target: T1, Xanthine dehydrogenase/oxidase
Experiment: Activity at bovine milk xanthine oxidase assessed as reduction of 2,6-dichlorophenol-indophenol
Details: cattle

SMILES | Activity
Cc1ccc(-c2cnn3c(O)cc(O)nc23)cc1 | Not Active
Oc1cc(O)n2ncc(Cl)c2n1 | Not Active
Oc1cc(O)n2nccc2n1 | Not Active
O=[N+]([O-])c1cnn2c(O)cc(O)nc12 | Not Active
Oc1cc(O)n2ncc(-c3cccnc3)c2n1 | Not Active
O=c1[nH]c(=O)c2[nH]cnc2[nH]1 [XANTHINE] | Active
Oc1ncnc2[nH]ncc12 [ALLOPURINOL] | Active
Oc1cc(O)n2ncc(Br)c2n1 | Not Active
Oc1cc(O)n2ncc(-c3ccc(Cl)cc3)c2n1 | Not Active
CC(=O)Nc1ccc(-c2cnn3c(O)cc(O)nc23)cc1 | Not Active

Second part, the molecule after the results:

Activity | SMILES
Not Active | Oc1cc(O)n2ncc(-c3cccc4ccccc34)c2n1
Not Active | Oc1cc(O)n2ncc(-c3ccccc3)c2n1
Not Active | Cc1cccc(-c2cnn3c(O)cc(O)nc23)c1
Not Active | Oc1cc(O)n2ncc(-c3ccc4c(c3)OCO4)c2n1
Not Active | Oc1cc(O)n2ncc(-c3ccc(Br)cc3)c2n1
